Laboratory results taken from publication PMC12135066, “Design and Preclinical Evaluation of Novel uPAR-Targeting Radiopeptides Modified with an Albumin-Binding Entity” (Molecular Pharmaceutics, 2025).

Legend:
[1] = Biodistribution studies in HEK-uPAR xenograft-bearing nude mice; conditions: female, mouse, 0.5 nmol, total radioactivity, 5 MBq, 0.5 nmol, decay-corrected, average ± SD, n=3 animals; for tissue uptake at 4 h: 4 h p.i.; for tissue uptake at 24 h: 24 h p.i.
[2] = test system: HEK-uPAR xenograft-bearing nude mice; experiment: as above; conditions: average ± SD, n=3 animals
[3] = Stability of the radiopeptides in human blood plasma
Procedure: The radiopeptides (50 MBq/nmol) stabilized with L-ascorbic acid were diluted in mouse and human blood plasma and incubated at 37 °C. Aliquots were taken after 1, 4, and 24 h and analyzed using reversed-phase thin-layer chromatography (TLC) (Supporting Information).
aProduct peak expressed as percentage of the sum of integrated peak areas of the entire chromatogram relative to
the value obtained immediately after labeling (set as 100%), average ± standard deviation (SD) (n=3).
Stability of the Radiopeptides in Mouse and Human Blood Plasma
Purpose: The stability of the radiopeptides was assessed in mouse and human blood plasma as an
indication for their in vivo stability.
Methods: The radiopeptides (50 MBq/nmol) stabilized with L-ascorbic acid were diluted in mouse
blood plasma (Lot: 32321, Rockland Immunochemicals Inc., U.S.A.) or in human blood plasma
(Stiftung Blutspende SRK Aargau -Solothurn, Switzerland) at a concentration of 10 MBq/200 µL and
incubated at 37 °C over a 24 h time period. Control samples were prepared by diluting the radiopeptides
in saline at the same activity concentration. Aliquots of each dilution were taken after 1 h, 4 h, and 24 h
(2 µL, ~100 kBq) and investigated employing thin layer chromatography (TLC) methods on reversed-
phase TLC plates (MERCK Analytical Chromatography, TLC Silica gel 60 RP -18 F254s) as stationary
phase and a 3/7 (v/v) mixture of acetonitrile /citrate buffer (0.1 M, pH 5.5) as mobile phase. A dilution
of [177Lu]LuCl3/HCl 0.04 M (10 MBq/200 µL) was added on each TLC plate. The developed and dried
TLC plates were exposed to a phosphor screen (Super resolution screen PSR10450013, PerkinElmer)
for 1 min. The screen was read with a Cyclone Plus phosphor imager (PerkinElmer) and the peak
quantification was performed using OptiQuant Software (version 5.0).

[4] = Radiolytic stability of the radiopeptides in saline with L-ascorbic acid; conditions: 50 MBq/nmol in saline, 150 MBq/300 µL, L-ascorbic acid (3 mg, 20 µL) and NaOAc (0.5 M, 30 µL), HPLC, product peak relative to t=0 (100%), average ± SD, n=3
Procedure: The radiolytic stability of the radiopeptides (50 MBq/nmol) in saline (150 MBq/300 μL) was assessed in the absence and presence of L-ascorbic acid (3 mg added in a volume of 20 μL). After an incubation period of 1, 4, and 24 h, aliquots of the solutions were analyzed using HPLC. The integrated peak area representing the intact radiopeptide was expressed as the percentage of the sum of all peaks of the chromatogram. The final amount of intact radiopeptide was expressed as the percentage of the product peak obtained at t = 0, which was set as 100% (Supporting Information).
The radiolytic stability of [177Lu]Lu-DOTA-AE105 and the new 177Lu-labeled uPAR-targeting
radiopeptides (50 MBq/nmol) was assessed in vitro in the formulated solution . The radiopeptide s were
diluted in saline to obtain an activity concentration of 150 MBq in 300 µL in the presence of L-ascorbic
acid (3 mg, 20 µL) and NaOAc (0.5 M, 30 µL) to compensate for the acidic pH. Aliquots of the dilutions
were analyzed using HPLC after incubation periods of 1 h, 4 h and 24 h . The integrated peak area
measured for the intact radioligand peak was expressed as the percentage of the sum of the integrated
peak areas of each peak present in the chromatogram. The final amount of intact radiopeptide at t = 1 h,
4 h and 24 h was expressed by correcting the obtained percentage of the product peak to this peak
obtained at t = 0, which was set as 100%.

[5] = n-Octanol/PBS distribution coefficients (logD values); conditions: n-octanol/PBS pH 7.4, pH 7.4
Procedure: The radiopeptides diluted in phosphate-buffered saline (PBS) pH 7.4 (25 μL, ∼0.5 MBq, 0.01 nmol) were added to a mixture of PBS pH 7.4 (1475 μL) and n-octanol (1500 μL). The vials were vortexed vigorously for 1 min, followed by centrifugation (560 rcf, 6 min) for phase separation. Aliquots were taken from each phase and measured in a γ-counter (1480 Wizard, PerkinElmer). The distribution coefficients were calculated as the logarithmic value of the ratio of counts per minute (cpm) measured in the n-octanol phase relative to the cpm measured in the PBS phase.
Methods: The logD value of all radiopeptides was determined in a mixture of n-octanol and phosphate
buffered saline (PBS) pH 7.4 using phase separation followed by liquid-liquid extraction.
polystyrene radioimmunoassay (RIA) tubes were prepared for each radiopeptide with 1.5 mL n-octanol
and 1.475 mL PBS pH 7.4. The RIA tubes were rigorously vortexed and subsequently let to stand so
that the phase separation could take place. The radiopeptides (50 MBq/nmol) were diluted with PBS
pH 7.4 to obtain an activity concentration of 10 MBq/0.5 mL. A volume of 25 μL of these solutions
was added to each RIA tube (25 µL, ~0.5 MBq, 0.01 nmol) followed by vortexing for 1 min.
separation was achieved by centrifugation at 560 rcf for 6 min. The activity in the n-octanol and PBS
phase, respectively, was measured in a γ-counter (Wallac Wizard 1480, PerkinElmer).
coefficients were calculated as the logarithm of the ratio of counts per minute (cpm) measured in the n-
octanol phase relative to the cpm measured in the PBS pH 7.4 phase.
as described above three independent times for each radiopeptide.

[6] = test system: human serum albumin (HSA); experiment: Albumin-binding properties in human blood plasma (ultrafiltration assay); conditions: ultrafiltration (Amicon, 10 kDa), human blood plasma dilutions in PBS pH 7.4, [HSA]-to-[radiopeptide] 0.01–20000, 0.006 nmol, 37 °C 30 min, γ-counter; inverse ratio of B50, [177Lu]Lu-uPAR-01 set as 1.00; average curve of 3 experiments
Procedure: (§1) The relative albumin-binding affinities of the radiopeptides in mouse and human blood plasma were determined using an ultrafiltration assay with Amicon centrifugal filters (cutoff of 10 kDa; Merck Millipore), as previously reported (Supporting Information). A fixed amount of the respective radiopeptide (15 μL, ∼300 kBq, 0.006 nmol) was added to a defined volume (150 μL) of mouse and human blood plasma dilutions to obtain [mouse serum albumin (MSA)]-to-[radiopeptide] and [human serum albumin (HSA)]-to-[radiopeptide] molar concentration ratios of 0.01–12,500 and 0.01–20,000, respectively. The data were analyzed using a semilogarithmic Hill plot with the maximum binding set as 100% (GraphPad Prism software, version 8.3.1).
(§2) Determination of the Albumin-Binding Properties
(§3) Purpose: The radiopeptides were investigated with regard to their albumin-binding capabilities in vitro
(§4) as a measure to predict blood retention in vivo.
(§5) Methods: The relative albumin-binding affinity of the radiopeptides in mouse blood plasma (Rockland
(§6) Immunochemicals, Inc., U.S.A.) and human blood plasma (Stiftung Blutspende SRK Aargau-
(§7) Solothurn, Switzerland) were determined using an ultrafiltration method. The amount of mouse serum
(§8) albumin (MSA) and human serum albumin (HSA) in mouse and human blood plasma was defined as
(§9) 550 μM and 800 μM, respectively, based on measurements using a dry chemistry analyzer (DRI-CHEM
(§10) 4000i, FUJIFILM, Japan). A fixed amount of radiopeptide (50 MBq/nmol, ~300 kBq, 15 μL, 0.006
(§11) nmol) was added to a defined volume (150 μL) of mouse and human blood plasma and various dilutions
(§12) thereof in PBS pH 7.4, resulting in defined [MSA]-to-[radiopeptide] or [HSA]-to-[radiopeptide] molar
(§13) concentration ratios ranging from 0.01 ‒12500 and 0.01‒20000, respectively, followed by incubation of
(§14) the samples at 37 °C for 30 min. Ice-cold PBS (150 µL, pH 7.4) was added before loading the blood
(§15) plasma samples on Amicon centrifugal filters (cut -off of 10 kDa; Merck Millipore) followed by
(§16) centrifugation (14000 rcf, 30 min, 4 °C) to allow the separation of the plasma protein -bound from the
(§17) plasma-unbound (free) fractions of each sample. The inserts of the filter devices were inverted and centrifuged at 200 rcf for 3 min to recover the protein -bound radiopeptide. The activity in the filtrate
(§18) and filter unit was measured in a γ-counter (1480 Wizard, PerkinElmer) and the counts were combined
(§19) assuming that the fraction retained in the filter membrane was not bound to proteins. The protein -bound
(§20) fraction was expressed as percentage of the whole activity (i.e. plasma protein -bound activity, activity
(§21) measured in the filtrate and activity measured in the filter (set as 100%) ). The data were analyzed using
(§22) a semi-logarithmic plot assuming a maximum binding of 100%. The Hill equation was fitted to the data
(§23) points and the half -maximum binding ( B50) based on the average curve obtained from three independent
(§24) experiments (GraphPad Prism software, version 8.3 .1). The relative albumin-binding affinit ies of the
(§25) reference compound, whose relative binding affinity was set as 1.0. The results were presented as the
(§26) B50 value obtained from the average curve from 3 independent experiments.

[7] = test system: mouse serum albumin (MSA); experiment: Albumin-binding properties in mouse blood plasma (ultrafiltration assay); conditions: ultrafiltration (Amicon, 10 kDa), mouse blood plasma dilutions in PBS pH 7.4, [MSA]-to-[radiopeptide] 0.01–12500, 0.006 nmol, 37 °C 30 min, γ-counter; inverse ratio of B50, [177Lu]Lu-uPAR-01 set as 1.00; average curve of 3 experiments
Procedure: as §1, §2, §3, §4, §5, §6, §7, §8, §9, §10, §11, §12, §13, §14, §15, §16, §17, §18, §19, §20, §21, §22, §23, §24, §25, §26

[8] = target: T1, human uPAR (Homo sapiens, UniProt Q03405); experiment: uPAR-binding affinity (KD values), saturation experiments with HEK-uPAR cells; conditions: saturation binding on HEK-uPAR cells, on ice (4 °C) 1 h, 1–1600 nM radiopeptide, ± AE105 40 µM; γ-counter; nonlinear regression; average ± SD, n=3
T1 construct: host or cells: HEK cells (HEK-uPAR)
Procedure: To determine the uPAR-binding affinity of the radiopeptides, saturation experiments were performed using HEK-uPAR cells in 48-well plates (Supporting Information). The cells were incubated on ice for 1 h in the presence or absence of excess AE105 (final concentration of 40 μM) together with the respective radiopeptide at a concentration range of 1–1600 nM. After rinsing the cells with PBS, they were lysed with an aqueous NaOH solution (1 M, 600 μL), transferred to radioimmunoassay tubes, and measured in a γ-counter (1480 Wizard, PerkinElmer). The K D values were determined by plotting the specific binding (values of samples incubated without AE105 minus the values of samples incubated with AE105) against the molar concentration of the added peptide. A nonlinear regression analysis was performed using GraphPad Prism software (version 8.3.1). The results were expressed as average ± SD of n = 3 independently performed experiments. […]
7. Determination of uPAR-Binding Affinity (KD Values)
Purpose: The uPAR-binding affinity of the radiopeptides were determined to investigate the impact of structural changes on the receptor binding.
Methods: HEK-uPAR cells were seeded in poly-D-lysine-coated 48-well plates (0.25 × 10 6 in 0.5 mL per well) using DMEM cell culture medium with supplements. The cells were incubated at 37 °C and 5% CO2 overnight to allow adhesion and growth. After removing the supernatant, the well plates with HEK-uPAR cells were placed on ice to prevent internalization of the radiopeptides. The cells were rinsed with cold PBS (0.5 mL, pH 7.4) followed by the addition of DMEM cell culture medium without supplements (450 µL/well) in the presence or absence of AE105 ( final concentration 40 µM) as a receptor-blocking agent. The radiopeptides (5 MBq/nmol) were diluted in PBS to obtain peptide concentrations ranging from 10 ‒16000 nM. From each dilution, 50 µL were added to each well to obtain final peptide concentrations of 1 nM to 1600 nM. The cells were incubated at 4 °C for 1 h before rinsing twice with PBS (0.5 mL, pH 7.4). The cells were lysed using an aqueous NaOH solution (1 M, 600 µL) and the lysates were transferred to RIA tubes for counting the activity in a γ-counter (1480 Wizard, PerkinElmer) . The KD values were determined by plotting specific binding (total binding minus unspecific binding) against the molar concentration of the added radiopeptide using GraphPad Prism (version 8.3.1). the results were then expressed as average K D values ± SD of n = 3 independent […]
Results: The results are reported in the main article.

[9] = CD1/nude (Crl:CD1-Foxn nu), HEK-uPAR xenograft, HEK-uPAR xgft
[10] = CD1/nude (Crl:CD1-Foxn nu), liver, Liver
[11] = CD1/nude, blood, 5 MBq (0.5 nmol)
[12] = CD1/nude, bone, 5 MBq (0.5 nmol)
[13] = CD1/nude, brain, 5 MBq (0.5 nmol)
[14] = CD1/nude, heart, 5 MBq (0.5 nmol)
[15] = CD1/nude, intestines, 5 MBq (0.5 nmol)
[16] = CD1/nude, kidneys, 5 MBq (0.5 nmol)
[17] = CD1/nude, liver, 5 MBq (0.5 nmol)
[18] = CD1/nude, lung, 5 MBq (0.5 nmol)
[19] = CD1/nude, muscle, 5 MBq (0.5 nmol)
[20] = CD1/nude, pancreas, 5 MBq (0.5 nmol)
[21] = CD1/nude, salivary glands, 5 MBq (0.5 nmol)
[22] = CD1/nude, spleen, 5 MBq (0.5 nmol)
[23] = CD1/nude, stomach, 5 MBq (0.5 nmol)

T1 sequence (Q03405 23-335): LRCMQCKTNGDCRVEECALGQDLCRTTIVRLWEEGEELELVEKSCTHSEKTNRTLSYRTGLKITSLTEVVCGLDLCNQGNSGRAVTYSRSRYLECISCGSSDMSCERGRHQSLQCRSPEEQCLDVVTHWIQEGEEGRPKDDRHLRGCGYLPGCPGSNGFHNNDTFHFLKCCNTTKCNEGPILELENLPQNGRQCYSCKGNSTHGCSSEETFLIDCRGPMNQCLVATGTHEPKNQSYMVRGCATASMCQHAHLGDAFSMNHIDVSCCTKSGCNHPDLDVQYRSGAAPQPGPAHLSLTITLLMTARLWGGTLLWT

In the case of `CC(C)C[C@H](NC(=O)[C@H](Cc1ccc(O)cc1)NC(=O)[C@@H](CCCNC(=N)N)NC(=O)[C@@H](CO)NC(=O)[C@H](Cc1ccccc1)NC(=O)[C@H](CC1CCCCC1)NC(=O)[C@H](CC(=O)O)NC(=O)CN1CCN(CC(=O)O)CCN(CC(=O)O)CCN(CC(=O)O)CC1)C(=O)N[C@@H](Cc1c[nH]c2ccccc12)C(=O)N[C@@H](CO)C(N)=O` [[^177Lu]Lu-DOTA-AE105, metal not drawn, reference compound], the tissue uptake at 4 h [1, 9] is reported as < 1 %ID/g, the tissue uptake at 24 h [1, 9] is reported as 0.4 ± 0.19 %ID/g and the tissue uptake at 4 h [1, 10] is reported as < 0.2 %ID/g. The tissue uptake at 24 h [1, 10] was < 0.2 %ID/g, the tissue uptake at 4 h ([1]; CD1/nude (Crl:CD1-Foxn nu), whole blood, Blood) was < 0.1 %ID/g and the tissue uptake at 4 h [1, 11] was 0.08 ± 0.01 %ID/g. The tissue uptake at 24 h [1, 11] was < 0.05 %ID/g, the tissue uptake at 4 h [1, 12] was 0.38 ± 0.03 %ID/g and the tissue uptake at 24 h [1, 12] was 0.84 ± 0.1 %ID/g. For the same compound, the tissue uptake at 4 h [1, 13] was < 0.05 %ID/g, the tissue uptake at 24 h [1, 13] was < 0.05 %ID/g and the tissue uptake at 4 h [1, 14] was 0.06 ± 0.01 %ID/g. For the same compound, the tissue uptake at 24 h [1, 14] was < 0.05 %ID/g, the tissue uptake at 4 h [1, 15] was 0.31 ± 0.03 %ID/g and the tissue uptake at 24 h [1, 15] was 0.18 ± 0.02 %ID/g. The tissue uptake at 4 h [1, 16] was 1.5 ± 0.1 %ID/g, the tissue uptake at 24 h [1, 16] was 1.3 ± 0.1 %ID/g and the tissue uptake at 4 h [1, 17] was 0.1 ± 0.01 %ID/g. For the same compound, the tissue uptake at 24 h [1, 17] was 0.17 ± 0.01 %ID/g, the tissue uptake at 4 h [1, 18] was 0.3 ± 0.02 %ID/g and the tissue uptake at 24 h [1, 18] was 0.21 ± 0.01 %ID/g. The tissue uptake at 4 h [1, 19] was < 0.05 %ID/g, the tissue uptake at 24 h [1, 19] was < 0.05 %ID/g and the tissue uptake at 4 h [1, 20] was 0.06 ± 0.01 %ID/g. For the same compound, the tissue uptake at 24 h [1, 20] was 0.06 ± 0.01 %ID/g, the tissue uptake at 4 h [1, 21] was 0.09 ± 0.01 %ID/g and the tissue uptake at 24 h [1, 21] was 0.09 ± 0.01 %ID/g. The tissue uptake at 4 h [1, 22] was 0.18 ± 0.02 %ID/g, the tissue uptake at 24 h [1, 22] was 0.23 ± 0.04 %ID/g and the tissue uptake at 4 h [1, 23] was 0.15 ± 0.03 %ID/g. For the same compound, the tissue uptake at 24 h [1, 23] was 0.17 ± 0.03 %ID/g, the HEK-uPAR xgft ([2]; 4 h p.i., 5 MBq, 0.5 nmol, decay-corrected) was 0.87 ± 0.05 % IA/g and the Xenograft-to-blood ratio ([2]; 4 h p.i.) was 11 ± 1. The Xenograft-to-kidney ratio ([2]; 4 h p.i.) was 0.58 ± 0.03, the Xenograft-to-liver ratio ([2]; 4 h p.i.) was 8.6 ± 0.4 and the Xenograft-to-blood ratio ([2]; 24 h p.i.) was 32 ± 13. For the same compound, the Xenograft-to-kidney ratio ([2]; 24 h p.i.) was 0.33 ± 0.14, the Xenograft-to-liver ratio ([2]; 24 h p.i.) was 2.4 ± 0.9 and the “Intact radiopeptide in human blood plasma [%]” value ([3]; 24 h, human blood plasma, 10 MBq/200 µL, 50 MBq/nmol, stabilized with L-ascorbic acid, 37 °C, reversed-phase TLC, phosphor imager, relative to t=0 (100%), average ± SD, n=3) was ~4.5%. It also gave a remaining at 1 h, 10 MBq/200 µL ([3]; human, blood plasma) of 71 ± 3%, a remaining at 24 h, 10 MBq/200 µL ([3]; human, blood plasma) of 4.5 ± 1.2% and a remaining at 4 h, 10 MBq/200 µL ([3]; human, human blood plasma) of ~13%. For the same compound, the “radiolytic stability, % intact radiopeptide” value ([4]; 1 h) was 98 ± 2%, the “radiolytic stability, % intact radiopeptide” value ([4]; 4 h) was 98 ± 1% and the logD [5] was -1.38 ± 0.18. For the same compound, the “Relative albumin-binding affinity, human blood plasma” value [6] was 0.01, the “Relative albumin-binding affinity, mouse blood plasma” value [7] was 0.02 and the Kd [8] was 20 ± 1 nM.
